Experimental data published in patent US20020159981A1, “Methods of controlling proliferation and differentiation of stem and progenitor cells” (Gamida-Cell Ltd., priority 1999, published 2002).

Assays:
[1] = test system: HL-60 cells; test: Copper determination in chelator treated cells (atomic absorption); format: cell-based, human
Procedure: Copper Determination: Cells were harvested by centrifugation at 1000×g for 5 minutes. The cell pellet was washed three times by re-suspending the cells in PBS (Ca^++ and Mg^++ free) and centrifugation at 1000×g. An aliquot containing 2×10^6 cells was then transferred into a metal-free Eppendorf tube and the cells were recovered by centrifugation at 1000×g. The cell pellet was re-suspended in 0.03 M ultra-pure nitric acid to give a concentration of 1×10^7 cells/ml. The cells were homogenized with a high shear mixer (polytron, Kinematica, Switzerland) for 1 minutes to disrupt the cell and release intracellular copper content. Cell samples were vortexed before transferring to a vial autosampler and analyzed in duplicate by a Perkin Elmer graphite furnace atomic absorption spectrophotometer at a wavelength of 324.7 nm. The samples were analyzed against copper standard solution prepared from a commercial stock solution that was diluted with 0.03 M ultra pure nitric acid.

[2] = test system: Cord blood-derived CD34 cells; test: Long-term liquid culture of CD34 cells: proliferation, CFUc, differentiation status; format: cell-based, human; details: for cell proliferation and generation of CFUc in long-term cultures: long-term cultures (FIGS. 21, 22)
Procedure: (§1) Culture procedures: For the expansion of progenitor cells, CD34^+ enriched fractions or unseparated mononuclear cells were seeded at about 1-3×10^4 cells/ml in either alpha minimal essential medium containing 10% preselected fetal calf serum (FCS) (both from GIBCO, Grand Island, N.Y.), or serum-free medium (Progenitor-34 medium, Life Technologies, Grand Island, N.Y.). The media were supplemented with a mixture of growth factors and transition metal chelators. The cultures were incubated at 37° C. in an atmosphere of 5% CO2 in air with extra humidity. Half of the medium was changed weekly with fresh medium containing all the supplements.
(§2) Cloning potential evaluations: The cloning potential of cells developed in the liquid culture was assayed, at different intervals, in semi-solid medium. The cells were washed and seeded in 35 mm dishes in methylcellulose containing alpha medium supplemented with recombinant growth factors (SCF, G-CSF, GM-CSF and EPO). Following 2 weeks incubation, the cultures were scored with an inverted microscope. Colonies were classified as blast, mixed, erythroid, myeloid, and megakaryocytic, according to their cellular composition.
Morphological assessment: In order to characterize the resulting culture populations, aliquots of cells were deposited on a glass slide (cytocentrifuge, Shandon, Runcorn, UK), fixed and stained in May-Grunwald Giemsa. Other aliquots were stained by benzidine for intracellular hemoglobin.
TEPA effects on proliferation and clonability of long-term CD34^+ cultures: Long-term cultures were maintained for 3-5 weeks by weekly demi-depopulation (one half of the culture volume was removed and replaced by fresh medium and cytokines).
CD34^+ cells derived from human neonatal cord blood were purified by immunomagnetic method and then cultured in liquid medium supplemented with cytokines either with or without transition metal chelators. At weekly intervals, the cultures were demi-depopulated by removing half of the culture content (supernatant and cells) and replacing it with fresh medium, cytokines and the chelators. At the indicated weeks the cellular content of the cultures were quantified for total cells (by a manual microscopic/hemocytometric method), for CD34^+ cells (by immuno-flow cytometry) and for clonogenic cells (by cloning the cells in cytokine-supplemented semi-solid medium). The cultures were initiated with 1×10^4 cells, 50-80% of which were CD34^+ and 25-50% of which were CFUc. The results presented in FIGS. 11 to 24 were calculated per 1×10^4 initiating cells (the numbers were multiplied by the dilution factors).

[3] = test system: Cord blood-derived CD34 cells; test: Short-term liquid culture of CD34 cells: cell number, CD34 cells, colony forming cells; format: cell-based, human; details: for effects of transition metal chelators on CD34^+ cells: 10 μM, day 7 (FIG. 7); for reversal of TEPA activities by supplemented ions: TEPA-treated cultures, short to medium term (FIGS. 8, 9)
Procedure: The interphase layer of mononuclear cells were collected, washed three times with Ca/Mg free phosphate buffered saline containing 1% bovine serum albumin (BSA). The cells were incubated for 30 min. at 4° C. with murine monoclonal anti CD34 antibody (0.5 μg/10^6 mononuclear cells) and thereafter isolated using the miniMACS apparatus (Miltenyi-Biotec, Bergisch, Gladbach, Germany) according to the manufacturer's protocol.
as §1, §2
Immunofluorescence staining: At different intervals, cells from the liquid cultures were assayed for CD34 antigen. Aliquots were harvested, washed and incubated on ice with FITC-labeled anti CD45 monoclonal antibody and either PE-labeled anti CD34 (HPCA-2) monoclonal antibody or PE-labeled control mouse Ig. After incubation, red cells were lysed with lysing solution, while the remaining cells were washed and analyzed by flow cytometer.
Flow cytometry: Cells were analyzed and sorted using FACStarPlus flow cytometer (Becton-Dickinson, Immunofluorometry systems, Mountain View, Calif.). Cells were passed at a rate of 1,000 cells/second through a […] nozzle, using saline as the sheath fluid. A 488 nm argon laser beam at 250 mW served as the light source for excitation. […] The PMTs was set at the appropriate voltage. Logarithmic amplification was applied for measurements of fluorescence and linear amplification—for forward light scatter. At least 10^4 cells were analyzed.
Cord blood-derived CD34 cells were plated in liquid culture in the presence of: FL—50 ng/ml, SCF—50 ng/ml, IL-6—50 ng/ml, with or without IL-3—20 ng/ml, with or without TEPA—10 μM. On day 7, the percentage of CD34 cells and the total cell number were determined. Aliquots equivalent to 1×10^3 initiating cells were assayed on days 0 and 7 for colony forming cells (CFU) by cloning in semi-solid medium. CFU expansion represents the ratio of CFU present on day 7 to CFU present on day 0.

[4] = test system: Murine erythroleukemia cells (MEL); test: HMBA-induced differentiation and growth of erythroleukemic cells; format: cell-based, mouse; details: day 3 (Table 2)
Procedure: Mouse erythroleukemic cells (MEL): MEL cells are erythroblast like cells. Following treatment with several chemicals (differentiation inducers) the cells undergo erythroid differentiation and accumulate hemoglobin. […] At day 3 of the culture, the total number of cells and the percentage of hemoglobin-containing cells were determined (Table 2).
On day 3, total cell number and hemoglobin containing (benzidine positive) cells were determined.

[5] = test system: cord blood-derived CD34^+ cells; test: Copper-chelating peptides on proliferation and clonability in CD34 cell cultures; format: cell-based; details: for decrease of cell number / decrease of clonogenic potential (CFUc): peptides 10 μM, cytokines 10 ng/ml each; for decrease of cell number: after 7 weeks (FIG. 25a); for decrease of clonogenic potential (CFUc): after 7 weeks (FIG. 25b); for effect on cell differentiation: second group of Copper chelators
Procedure: Culture procedures: For the expansion of progenitor cells, CD34^+ enriched fractions were seeded at 1×10^4 cells/ml in alpha minimal essential medium containing 10% preselected fetal calf serum (FCS) (both from GIBCO, Grand Island, N.Y.). The medium was supplemented with a mixture of growth factors and Copper chelators. The cultures were incubated at 37° C. in an atmosphere of 5% CO2 in air with extra humidity. Half of the medium was changed weekly with fresh medium containing all the supplements.
The cloning potential of the cultured cells was assayed in semi-solid medium. The cells were washed and seeded in 35 mm dishes in methylcellulose containing alpha medium supplemented with 30% FCS and further with recombinant growth factors (stem cell factor (SCF), G-CSF, GM-CSF and erythropoietin (EPO)). Following two week incubation, the cultures were scored with an inverted microscope. Colonies were classified as blast, mixed, erythroid, myeloid, and megakaryocytic, according to their cellular composition.
The effect of Copper-chelating peptides on proliferation and clonability in CD34 cell cultures: Cultures were initiated with 10^4 cord blood-derived CD34^+ cells by plating purified cells in liquid medium in the presence of SCF, FLT3 and IL-6 (50 ng/ml each) and the Copper-binding peptides, Gly-Gly-His (GGH) or Gly-His-Lys (GHL) (10 μM each), or the late-acting cytokines G-CSF and GM-CSF (10 ng/ml each). At weekly intervals, the cultures were demi-depopulated and supplemented with fresh medium, cytokines and the peptides. After 7 weeks, cells were counted and assayed for CFUc.

[6] = polyamine chelating agents, weeks 3, 4, 6, 7 (FIGS. 21a-b)

Molecule: O=C1CC(=O)NCCNCCCNCCN1 [1,4,8,11-Tetraaza cyclotetradecane-5,7-dione]
- Average Intracellular ppb Cu ([1]; 100 μM, control 49 + − 18): 274 ppb

Molecule: C1CNCCNCCNCCN1 [1,4,7,10-Tetraaza cyclododecane]
- activity on differentiation of CD34^+ cells [2]: stimulate differentiation

Molecule: C[C@H](CS)C(=O)N1CCC[C@H]1C(=O)O [Captopril, captopril, reference compound]
- effects of transition metal chelators on CD34^+ cells [3]: share the same effects on CD34^+ cells as TEPA
- HMBA-induced differentiation of MEL cells [4]: inhibited

Molecule: O=S(=O)([O-])[O-].[Zn+2] [Zinc, Zinc-sulfate]
- clonability of the cultures ([3]; Zinc alone (FIG. 10)): expand the clonability
- effect of Zinc in long term cultures ([2]; FIGS. 23a-b, to a smaller extent than the chelators): mimicked the effect of the chelating agents

Molecule: NCCN [EDA, ethylenediamine]
- cell proliferation and generation of CFUc in long-term cultures [2]: support continuous cell proliferation and long-term generation of CFUc and to delay cell differentiation
- concentrations with optimal activity [2, 6]: 20 µM

Molecule: O=[Se]([O-])[O-].[Na+].[Na+] [selenium, sodium selenite]
- reversal of TEPA activities by supplemented ions [3]: did not

Molecule: NCCNCCNCCN [Triethylene tetramine, triethylene-tetramine]
- cell proliferation and generation of CFUc in long-term cultures [2]: support continuous cell proliferation and long-term generation of CFUc and to delay cell differentiation
- concentrations with optimal activity [2, 6]: 20 µM

Molecule: Gly-Gly-His (GHK) [GGH]
- decrease of cell number [5]: 10%
- decrease of clonogenic potential (CFUc) [5]: 80%
- effect on cell differentiation [5]: accelerate cell differentiation
- activity on differentiation of CD34^+ cells [2]: stimulate differentiation

Molecule: C1CNCCNCCN1.Cl.Cl.Cl [1,4,7-Triazacyclononane trihydrochioride]
- Average Intracellular Cu (% of control) ([1]; 20 μM): 32%
- Average Intracellular Cu (% of control) ([1]; 100 μM): 36%

Molecule: O=S(=O)([O-])[O-].[Cu+2] [Copper, Copper-sulfate]
- reversal of TEPA activities by supplemented ions [3]: reversed

Molecule: Gly-His-Lys (GGH) [GHL]
- decrease of cell number [5]: 25%
- decrease of clonogenic potential (CFUc) [5]: 78%
- effect on cell differentiation [5]: accelerate cell differentiation
- activity on differentiation of CD34^+ cells [2]: stimulate differentiation

Molecule: CC(C)(S)[C@@H](N)C(=O)O [Penicilamine, penicilamine, reference compound]
- effects of transition metal chelators on CD34^+ cells [3]: share the same effects on CD34^+ cells as TEPA
- cell proliferation and generation of CFUc in long-term cultures [2]: sustained cell proliferation and expansion of clonogenic cells
- concentrations with optimal activity ([2]; transition metal chelating agents, weeks 4, 5, 7 (FIGS. 22a-b)): 5 µM

Molecule: iron
- reversal of TEPA activities by supplemented ions [3]: did not
